Results reported in patent US4302541A, “Process of producing optically active cephalosporin analogs by enzyme selective deacylation” (Kyowa Hakko Kogyo Co., Ltd., priority 1979, dated 1981).
Values after ≈ are worked out from the molar mass of the structure shown. Read-outs that look alike come from different tables or passages of the source.

Legend:
Assay in all cases: Heart Infusion Agar Dilution Method (MIC)
Assay type in all cases: cell-based
[1] = system: Staphylococcus aureus 209-P; conditions: pH 7.2
Escherichia coli NIHJC-2 = conditions: NIHJC2, pH 7.2
Escherichia coli Juhl = conditions: pH 7.2
Proteus mirabilis 1287 = system: Proteus mirabilis 1287
[2] = system: Klebsiella pneumoniae Y-60; conditions: Y60, pH 7.2
[3] = system: Staphylococcus epidermidis; conditions: pH 7.2
Serratia marcescens T-55 = conditions: T55, pH 7.2
[4] = system: Klebsiella pneumoniae 8045; conditions: pH 7.2
Serratia marcescens T-26 = conditions: T26, pH 7.2
[5] = Staphylococcus aureus 209-P, Heart Infusion Agar Dilution Method, read-out: MIC

MIC [4] [µg/mL] | MIC (Serratia marcescens T-26) [µg/mL] | MIC (Proteus mirabilis 1287; Proteus mirabilis 1287, Heart Infusion Agar Dilution Method, pH 7.2, read-out: MIC) [µg/mL] | Structure (SMILES) | MIC [1, 5] [µg/mL] | MIC (Escherichia coli NIHJC-2) [µg/mL] | MIC (Escherichia coli Juhl) [µg/mL] | MIC ([1]; Staphylococcus aureus, 209P) [µg/mL] | MIC (Proteus mirabilis 1287; Proteus mirabilis, 1287, pH 7.2) [µg/mL] | MIC [2] [µg/mL] | MIC [3] [µg/mL] | MIC (Serratia marcescens T-55) [µg/mL]
– | – | – | Cc1nnc(SCC2=C(C(=O)O)N3C(=O)[C@@H](NC(=O)Cn4cnnn4)[C@H]3SC2)s1 [Cefazolin] | ≤ 0.05 | 1.56 (≈ 3.43 µM) | 1.56 (≈ 3.43 µM) | – | – | – | – | –
– | – | – | CC1=C(C(=O)O)N2C(=O)[C@@H](NC(=O)[C@H](N)c3ccccc3)[C@H]2SC1 [Cephalexin] | – | 12.5 (≈ 36 µM) | 12.5 (≈ 36 µM) | 0.2 (≈ 0.576 µM) | 25 (≈ 72 µM) | 50 (≈ 144 µM) | 3.12 (≈ 8.98 µM) | 50 (≈ 144 µM)
0.2 (≈ 0.572 µM) | > 100 | 3.12 (≈ 8.92 µM) | N[C@@H](C(=O)N[C@@H]1C(=O)N2C(C(=O)O)=C(Cl)CC[C@H]12)c1ccccc1 [Reference Example 2, (6R, 7S) 7-(R)-2-phenylglycinamido3-chloro-1-azabicyclo[4,2,0]oct-2-en-8-on-2-carboxylic acid] | 0.1 (≈ 0.286 µM) | – | – | – | – | – | – | –
